Measured values reported in paper PMC5885141 (Molecular imaging and biology : MIB : the official …, 2014).
IR800 = IRDye800CW

Tests used:
[1] = test system: GRPr and NMB-R; conditions: with or without a chelated metal ion; same assay as in Fig. 2; ref [31]; cited from earlier work
[2] = test system: PC-3 cells; assay: Direct binding assay in PC-3 cells by fluorescence microscopy; format: cell-based, human; conditions: 2 μM, 2 h incubation

DO3A-CH2CO-G-ABz4-QWAVGHLM-NH2 [AMBA]
IC50 [1]: 2 to 5 nM

IR800-GSG-t-BBN: IR800-linker-QWAVGHLM-NH2 with linker = GSG (IR800-GSGQWAVGHLM-NH2)
Direct binding to PC-3 cells (fluorescence microscopy) [2]: bound to PC-3 cells to widely different extents
